Where two headings read alike, the source gives them in different places.
Tests used:
MOLM14 [1] = assay: Proliferation assay A (spheroid assay) MOLM14; assay type: cell-based, human; settings: MOLM14 cells, 8 d, AUC of confluence against time, absolute IC50, read-out: (3a) Spheroid assay MOLM14 (IC50(μM)) Assay A
Protocol: (§1) 3a) Proliferation Assay A
(§2) The anti-proliferative effect of menin/MLL protein/protein interaction inhibitor test compounds was assessed in human leukemia cell lines. The cell lines MV-4-11 and MOLM14 harbor MILL translocations and express the MILL fusion proteins MLL-AF4 and MLL-AF9, respectively, as well as the wildtype protein from the second allele. […] K562 was used as a control cell line containing two MLL wildtype alleles in order to exclude compounds that display general cytotoxic effects.
(§3) MV-4-11 and MOLM14 were cultured in RPMI-1640 (Sigma Aldrich) supplemented with 10% fetal bovine serum (HyClone), 2 mM L-glutamine (Sigma Aldrich) and 50 μg/ml gentamycin (Gibco). K562 were propagated in RPMI-1640 (Sigma Aldrich) supplemented with 20% fetal bovine serum (HyClone), 2 mM L-glutamine (Sigma Aldrich) and 50 μg/ml gentamycin (Gibco).
(§4) In order to assess the anti-proliferative effects, 1,500 MV-4-11, 300 MOLM14 or 750 K562 cells were seeded in 200 μl media per well in 96-well round bottom, ultra-low attachment plates (Costar, catalogue number 7007). Cell seeding numbers were chosen based on growth curves to ensure linear growth throughout the experiment. Test compounds were added at different concentrations and the DMSO content was normalized to 0.3%. Cells were incubated for 8 d at 37° C. and 5% CO2. Spheroid like growth was monitored in real-time by live-cell imaging (IncuCyteZOOM, Essenbio, 4× objective) acquiring one image every four hours for 8 d. Confluence (%) as a measure of spheroid size was determined using an integrated analysis tool.
In order to determine the cumulative effect of the test compounds over time, the area under the curve (AUC) in a plot of confluence against time was calculated. Confluence at the beginning of the experiment (t=0) was used as baseline for the AUC calculation.
Absolute IC50 values were calculated according to the following procedure: % Control=(AUC sample/AUC control)*100
AUC control mean AUC of control values (cells without compound/DMSO as vehicle control)
A non-linear curve fit was applied using the least squares (ordinary) fit method to the plot of % control versus compound concentration. Based on this, the absolute IC50 value (half maximal inhibitory concentration of the test compound causing an anti-proliferative effect of 50% relative to the vehicle control) was calculated.

MV-4-11 [2] = assay: Proliferation assay A (spheroid assay) MV-4-11; assay type: cell-based, human; settings: MV-4-11 cells, 8 d, AUC of confluence against time, absolute IC50, read-out: (3a) Spheroid assay MV-4-11 (IC50(μM)) Assay A
Method in brief: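 Spheroid growth in ultra-low-attachment round-bottom wells (1,500 MV-4-11, 300 MOLM14 or 750 K562 cells), compound titration at 0.3% DMSO, 8 d at 37° C. Confluence imaged every 4 h; AUC from t=0 baseline expressed as % of DMSO control and fitted for absolute IC50.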

K562 [3] = assay: Proliferation assay A (spheroid assay) K562 control cell line; assay type: cell-based; settings: Homo sapiens, 192 h; K562 cells (MLL wildtype control), 8 d, AUC of confluence against time; read-out: (3a) Spheroid assay K562 Assay A
Protocol: as §1, §2
MV-4-11 and MOLM14 were cultured in RPMI-1640 (Sigma Aldrich) supplemented with 10% fetal bovine serum (HyClone), 2 mM L-glutamine (Sigma Aldrich) and 50 μg/ml gentamycin (Gibco). […]
In order to assess the anti-proliferative effects, 1,500 MV-4-11, 300 MOLM14 or 750 K562 cells were seeded in 200 μl media per well in 96-well round bottom, ultra-low attachment plates (Costar, catalogue number 7007). […] Spheroid like growth was monitored in real-time by live-cell imaging (IncuCyteZOOM, Essenbio, 4× objective) acquiring one image every four hours for 8 d. Confluence (%) as a measure of spheroid size was determined using an integrated analysis tool.
In order to determine the cumulative effect of the test compounds over time, the area under the curve (AUC) in a plot of confluence against time was calculated. […]

menin = molecular target: T1, menin (Homo sapiens, UniProt O00255, T541A); assay: Menin/MLL homogenous time-resolved fluorescence (HTRF) assay; assay type: binding
T1 construct: Menin (a.a. 1-610-6×his tag)
T1 sequence (O00255 with tags, fused parts or gaps T541A): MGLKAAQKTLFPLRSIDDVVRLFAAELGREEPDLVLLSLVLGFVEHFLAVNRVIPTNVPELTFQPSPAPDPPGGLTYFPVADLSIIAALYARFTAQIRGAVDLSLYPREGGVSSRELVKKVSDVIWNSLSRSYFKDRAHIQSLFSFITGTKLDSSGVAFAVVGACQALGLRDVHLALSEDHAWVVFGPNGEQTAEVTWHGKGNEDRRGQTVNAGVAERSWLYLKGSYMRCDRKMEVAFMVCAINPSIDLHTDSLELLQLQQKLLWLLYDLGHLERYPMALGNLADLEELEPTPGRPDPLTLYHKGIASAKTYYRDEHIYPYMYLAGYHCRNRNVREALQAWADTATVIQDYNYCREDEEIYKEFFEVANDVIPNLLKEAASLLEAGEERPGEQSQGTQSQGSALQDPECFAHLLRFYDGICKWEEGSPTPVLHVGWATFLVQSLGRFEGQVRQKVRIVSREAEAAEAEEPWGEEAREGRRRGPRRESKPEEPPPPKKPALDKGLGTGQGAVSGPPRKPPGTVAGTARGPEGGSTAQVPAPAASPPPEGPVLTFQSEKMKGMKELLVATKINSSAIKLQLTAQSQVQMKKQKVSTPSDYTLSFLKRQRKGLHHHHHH
Method in brief: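 Terbium-labeled menin (aa 1-610, His-tagged; […]) preincubated 5 min with compound, then 75 nM FITC-MBM1 peptide for 15 min, ambient, Tris pH 7.5, 0.5% DMSO. HTRF 520/490 ratio; 11-point 3-fold titration; IC50 from % inhibition fit.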

K562 [4] = assay: Proliferation assay B (spheroid assay) K562 control cell line; assay type: cell-based; settings: Homo sapiens, 192 h; K562 cells (MLL wildtype control), confluence at day 8; read-out: (3b) Spheroid assay K562 Assay B
Protocol: 3b) Proliferation Assay B
as §2, §3
as §4, with “MOLM14 cells” for “MOLM14”, “measured” for “monitored”, “images at day 8.” for “one image every four hours for 8 d.”
In order to determine the effect of the test compounds over time, the confluence in each well as a measure of spheroid size, was calculated. Confluence […] at the beginning of the experiment (t=0) was used as baseline for the calculation.
Absolute IC50 values were calculated as percent change in confluence as follows:
LC=Low Control: cells treated with 1 μM of the cytotoxic agent staurosporin
HC=High Control: Mean confluence (%) (DMSO treated cells) % Effect=100−(100*(Sample−LC)/(HC−LC))
To determine the IC50 a curve is fitted to the plot of % Effect vs Log 10 compound concentration using a sigmoidal fit with a variable slope and fixing the maximum to 100% and the minimum to 0%.

MV-4-11 [5] = assay: Proliferation assay B (spheroid assay) MV-4-11; assay type: cell-based, human; settings: MV-4-11 cells, confluence at day 8, absolute IC50, read-out: (3b) Spheroid assay MV-4--11 (IC50(μM)) Assay B
Method in brief: (§5)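 Leukemia cells grown as spheroids in ultra-low-attachment round-bottom wells with compound at 0.3% DMSO for 8 d at 37 °C. Confluence imaged at day 8 as spheroid size, normalized between DMSO and 1 μM staurosporine controls; absolute IC50 from sigmoidal fit with bounds fixed at 0 and 100%.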

MOLM14 [6] = assay: Proliferation assay B (spheroid assay) MOLM14; assay type: cell-based, human; settings: MOLM14 cells, confluence at day 8, absolute IC50, read-out: (3b) Spheroid assay MOLM14 (IC50(μM)) Assay B
Method in brief: as §5

[7] = location 1, read-out: (2) location 1 Menin HTRF assay (IC50 (nM))
[8] = location 2, read-out: (2) location 2 Menin HTRF assay (IC50 (nM))

| IC50 (MOLM14 [1]; Homo sapiens, MOLM-14, 192 h) [µM] | IC50 (MV-4-11 [2]; Homo sapiens, MV4-11, 192 h) [µM] | IC50 (MOLM14 [6]; Homo sapiens, MOLM-14, 192 h) [µM] | IC50 (menin; [8]) [nM] | Structure (SMILES) | further results |
| --- | --- | --- | --- | --- | --- |
| 1.58 | 0.35 |  |  | FC(F)(F)Cc1cc2c(N3CCC4(CC(NCc5ccccc5)C4)C3)ncnc2s1 (stereo not shown) [Compound 48] | IC50 (K562 [3]): > 15 µM; IC50 (menin; [7]): 12 nM |
|  |  | 0.63 | 1.8 | CNC(=O)c1ccc(NC2CC3(CCN(c4ncnc5sc(CC(F)(F)F)cc45)C3)C2)cc1OCCN(C)C (single isomer, unassigned) [Compound 77] | IC50 (K562 [4]): 7.85 µM; IC50 (MV-4-11 [5]; Homo sapiens, MV4-11, 192 h): 0.19 µM |
|  |  | 2.26 | 1.6 | O=c1[nH]c2ccc(CNC3CCC4(C3)CN(c3ncnc5sc(CC(F)(F)F)cc35)C4)cc2[nH]1 (single isomer, unassigned) [Compound 109] | IC50 (MOLM14 [1]): 3.24 µM; IC50 (MV-4-11 [2]): 0.24 µM |
| 1.3 | 0.25 | 1.36 | 2.6 | CNC(=O)c1ccc(NC2CCC3(C2)CN(c2ncnc4sc(CC(F)(F)F)cc24)C3)cc1 (single isomer, unassigned) [Compound 98] |  |
|  |  | 0.3 |  | O=C(NCC(F)(F)F)c1ccc(NC2CC3(CCN(c4ncnc5sc(CC(F)(F)F)cc45)C3)C2)cc1 (stereo not shown) [Compound 371] | IC50 (K562 [4]): 6.48 µM; IC50 (MV-4-11 [5]; Homo sapiens, MV4-11, 192 h): 0.08 µM |
| 3.46 | 3.2 |  | 23.2 | COc1nc(N2CCC3(CC(NCc4ccccc4)C3)C2)c2cc(CC(F)(F)F)sc2n1 (single isomer, unassigned) [Compound 60] |  |
|  |  | 1.57 |  | FC(F)(F)Cc1cc2c(N3CCC4(CC(Nc5ccc(-c6nnc[nH]6)cc5)C4)C3)ncnc2s1 (stereo not shown) [Compound 370] | IC50 (K562 [4]): 7.3 µM; IC50 (MV-4-11 [5]; Homo sapiens, MV4-11, 192 h): 0.35 µM |
| > 3.75 |  |  | 5.2 | O=c1[nH]c2ccc(CNC3CCC4(C3)CN(c3ncnc5sc(CC(F)(F)F)cc35)C4)cc2[nH]1 (single isomer, unassigned) [Compound 108] | IC50 (MV-4-11 [2]): 0.53 µM |
|  |  |  | 206 | CN1CC=C(c2cc(NC3CC4(CCN(c5ncnc6sc(CC(F)(F)F)cc56)C4)C3)ccc2C(C)(C#N)C#N)CC1 (single isomer, unassigned) [Compound 246] | IC50 (K562 [4]): 3.97 µM; IC50 (MV-4-11 [5]): 0.26 µM; IC50 (MOLM14 [6]): 0.13 µM |
| 2.28 | 2.15 |  | 47.9 | Cc1nc(N2CC3(CCC(NCc4ccc5[nH]c(=O)[nH]c5c4)C3)C2)c2cc(CC(F)(F)F)sc2n1 (stereo not shown) [Compound 119] |  |
| 3.82 |  |  | 78.2 | N#CCc1ccc(NC2CC3(CCN(c4ncnc5sc(CC(F)(F)F)cc45)C3)C2)cc1 (single isomer, unassigned) [Compound 306] | IC50 (MV-4-11 [2]): 2.25 µM |
| 1.02 | 0.14 |  |  | FC(F)(F)Cc1cc2c(N3CC4(CC[C@@H](NCc5ccccc5)C4)C3)ncnc2s1 (single isomer, unassigned) [Compound 47] | IC50 (K562 [3]): > 15 µM; IC50 (menin; [7]): 15.5 nM |
| 1.99 | > 3.75 |  | 86.8 | Nc1nc(N2CCC3(CC(Nc4ccc5[nH]c(=O)oc5c4)C3)C2)c2cc(CC(F)(F)F)sc2n1 (single isomer, unassigned) [Compound 386] |  |
|  |  | 2.44 | 3.1 | N#CCc1ccc(NC2CC3(CCN(c4ncnc5sc(CC(F)(F)F)cc45)C3)C2)cc1 (single isomer, unassigned) [Compound 307] | IC50 (MOLM14 [1]): 3.38 µM; IC50 (MV-4-11 [2]): 1.05 µM |
| > 3.75 | > 3.75 |  | 22.8 | N#CCc1ccc(NC2CCC3(C2)CN(c2ncnc4sc(CC(F)(F)F)cc24)C3)cc1 (racemic) [Compound 278] |  |

— patent US11396517B1, “Exo-aza spiro inhibitors of menin-MLL interaction” (Janssen Pharmaceutica NV, priority 2017, dated 2022)
